Where two headings read alike, the source gives them in different places.
Tests used:
[1] = Microsome stability assay, human liver microsomes; assay type: in vitro ADME; conditions: 1 μM compound, 0.5 mg/mL microsomal protein; for microsomal CLint at 1 h, 1 µM / half-life at 1 h, 1 µM / microsomal CLint at 1 μM / half-life at 1 μM: human, human liver microsomes, pooled, NADPH, 37° C.; for microsomal CLint at 1 h, 1 µM / microsomal CLint at 1 μM: read-out: Microsome Stability Human liver microsomes Cl; for half-life at 1 h, 1 µM / half-life at 1 μM: read-out: Microsome Stability Human liver microsomes T½
Protocol: Compounds of the disclosure were screened in microsome stability assays. For the screen, test compounds were incubated at 37° C. with either human liver microsomes (Corning; #452117) or mouse liver microsomes (XenoTech; #M1000), pooled from multiple donors, at 1 μM in the presence of a NADPH regenerating system at 0.5 mg/mL microsomal protein. Positive controls included in the assay were testosterone (3A4 substrate), propafenone (2D6) and diclofenac (2C9). Samples were removed at different time points (0, 5, 10, 20, 30 and 60 minutes) and immediately mixed with cold acetonitrile containing internal standard (IS, 200 ng/mL tolbutamide and 200 ng/mL labetalol). Test compounds incubated with microsomes for 60 minutes without the NADPH regenerating system was also included. A single point for each test condition (n=1) was obtained, and samples were analyzed by LC/MS/MS. Disappearance of the test compound was assessed based on peak area ratios of analyte/IS (no standard curve).

HSD17B13 = HSD17B13 (Homo sapiens (Human), UniProt Q7Z5P4); experiment: HSD17B13 enzymatic inhibition assay (150 nM or 50 nM HSD17B13); assay type: biochemical
HSD17B13, sequence (Q7Z5P4 other isoform, or with tags, fused parts or gaps): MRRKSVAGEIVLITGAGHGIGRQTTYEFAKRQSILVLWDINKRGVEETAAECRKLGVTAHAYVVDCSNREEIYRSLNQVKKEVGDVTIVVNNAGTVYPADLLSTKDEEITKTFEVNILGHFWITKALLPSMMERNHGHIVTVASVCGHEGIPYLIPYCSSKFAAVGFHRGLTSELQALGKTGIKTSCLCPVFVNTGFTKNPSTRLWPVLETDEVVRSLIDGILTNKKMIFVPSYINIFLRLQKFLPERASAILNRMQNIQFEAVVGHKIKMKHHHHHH

[2] = 50 nM HSD17B13, read-out: Inhibition of 50 nM of HSD17B13 IC50
[3] = 150 nM HSD17B13, read-out: Inhibition of 150 nM of HSD17B13 IC50

SMILES	Microsome Stability Human liver microsomes % Remaining @60 min [1]	IC50 (HSD17B13; [2])	further results
Cc1ccc(C(NC(=O)c2ccc(C(F)(F)F)[nH]c2=O)c2ccccc2)cc1C (stereo not shown) [Compound 2A, N-((3,4-dimethylphenyl)(phenyl)methyl)-2-oxo-6-(trifluoromethyl)-1,2-dihydropyridine-3-carboxamide]	0.10%	0.28 µM	microsomal CLint at 1 h, 1 µM [1]: 515 µL/min/mg; half-life at 1 h, 1 µM [1]: 2.7 min; IC50 (HSD17B13; [3]): 1.57 µM
O=C(NC(c1ccccc1)c1ccc2c(c1)OCO2)c1ccc(C(F)(F)F)[nH]c1=O (stereo not shown) [Compound 3, N-(benzo[d][1,3]dioxol-5-yl(phenyl)methyl)-2-oxo-6-(trifluoromethyl)-1,2-dihydropyridine-3-carboxamide]	1.00%		microsomal CLint at 1 h, 1 µM [1]: 217 µL/min/mg; half-life at 1 h, 1 µM [1]: 6.39 min; IC50 (HSD17B13; [3]): 1.31 µM
O=C(NC(c1ccccc1)c1cccc(C(F)(F)F)c1)c1ccc(C(F)(F)F)[nH]c1=O (stereo not shown) [Compound 7, 2-oxo-N-(phenyl(3-(trifluoromethyl)phenyl)methyl)-6-(trifluoromethyl)-1,2-dihydropyridine-3-carboxamide]	101.00%	3.09 µM	microsomal CLint at 1 μM [1]: < 9.6 µL/min/mg; half-life at 1 μM [1]: > 145 min
CS(=O)(=O)Nc1ccc(C(NC(=O)c2ccc(C(F)(F)F)[nH]c2=O)c2ccccc2)cc1 (stereo not shown) [Compound 7A, N-((4-(methylsulfonamido)phenyl)(phenyl)methyl)-2-oxo-6-(trifluoromethyl)-1,2-dihydropyridine-3-carboxamide]	93.90%	1.1 µM	microsomal CLint at 1 μM [1]: < 9.6 µL/min/mg; half-life at 1 μM [1]: > 145 min
CC(C)Cc1ccc(C(NC(=O)c2ccc(C(F)(F)F)[nH]c2=O)c2ccccc2)cc1 (stereo not shown) [Compound 13, N-((4-isobutylphenyl)(phenyl)methyl)-2-oxo-6-(trifluoromethyl)-1,2-dihydropyridine-3-carboxamide]	1.44%	0.94 µM	microsomal CLint at 1 h, 1 µM [1]: 138 µL/min/mg; half-life at 1 h, 1 µM [1]: 10.1 min
O=C(NC(c1ccccc1)c1ccc(Oc2ccccc2)cc1)c1ccc(C(F)(F)F)[nH]c1=O (stereo not shown) [Compound 16, N-((4-phenoxyphenyl)(phenyl)methyl)-2-oxo-6-(trifluoromethyl)-1,2-dihydropyridine-3-carboxamide]	23.30%	0.97 µM	microsomal CLint at 1 μM [1]: 45.2 µL/min/mg; half-life at 1 μM [1]: 30.7 min
O=C(NC(c1ccccc1)c1cccc(O)c1)c1ccc(C(F)(F)F)[nH]c1=O (stereo not shown) [Compound 18, N-((3-hydroxyphenyl)(phenyl)methyl)-2-oxo-6-(trifluoromethyl)-1,2-dihydropyridine-3-carboxamide]	36.60%	2.48 µM	microsomal CLint at 1 h, 1 µM [1]: 33 µL/min/mg; half-life at 1 h, 1 µM [1]: 42 min
O=C(NC(c1ccccc1)c1ccccc1O)c1ccc(C(F)(F)F)[nH]c1=O (stereo not shown) [Compound 35, N-((2-hydroxyphenyl)(phenyl)methyl)-2-oxo-6-(trifluoromethyl)-1,2-dihydropyridine-3-carboxamide]	14.90%		microsomal CLint at 1 h, 1 µM [1]: 63.4 µL/min/mg; half-life at 1 h, 1 µM [1]: 21.9 min; IC50 (HSD17B13; [3]): 2.78 µM
CCCc1ccc(C(NC(=O)c2ccc(C(F)(F)F)[nH]c2=O)c2ccccc2)cc1 (stereo not shown) [Compound 36, 2-oxo-N-(phenyl(4-propylphenyl)methyl)-6-(trifluoromethyl)-1,2-dihydropyridine-3-carboxamide]	2.00%	0.68 µM	microsomal CLint at 1 h, 1 µM [1]: 126 µL/min/mg; half-life at 1 h, 1 µM [1]: 11 min
CC(C)c1ccc(C(NC(=O)c2ccc(C(F)(F)F)[nH]c2=O)c2ccccc2)cc1 (stereo not shown) [Compound 37, N-((4-isopropylphenyl)(phenyl)methyl)-2-oxo-6-(trifluoromethyl)-1,2-dihydropyridine-3-carboxamide]	5.70%	0.78 µM	microsomal CLint at 1 h, 1 µM [1]: 92.4 µL/min/mg; half-life at 1 h, 1 µM [1]: 15 min
Cc1ccc(C(=O)NC(c2ccccc2)c2ccccc2O)c(=O)[nH]1 (stereo not shown) [Compound 65, N-((2-hydroxyphenyl)(phenyl)methyl)-6-methyl-2-oxo-1,2-dihydropyridine-3-carboxamide]	50.10%		microsomal CLint at 1 h, 1 µM [1]: 118 µL/min/mg; half-life at 1 μM [1]: 11.8 min; IC50 (HSD17B13; [3]): > 30 µM
CSc1cc(C)ccc1C(NC(=O)c1ccc(C(F)(F)F)[nH]c1=O)c1ccccc1 (stereo not shown) [Compound 540, N-((4-methyl-2-(methylthio)phenyl)(phenyl)methyl)-2-oxo-6-(trifluoromethyl)-1,2-dihydropyridine-3-carboxamide]		1.13 µM	
Cc1ccc2c(c1)O[C@@H]1CCCC[C@H]1[C@H]2NC(=O)c1ccc(C(F)(F)F)[nH]c1=O [Compound 541, N-((4aR,9R,9aS)-6-methyl-2,3,4,4a,9,9a-hexahydro-1H-xanthen-9-yl)-2-oxo-6-(trifluoromethyl)-1,2-dihydropyridine-3-carboxamide]		0.06 µM	
CCCC1=C(NC(=O)c2ccc(C(F)(F)F)[nH]c2=O)c2cc(C)ccc2C1=O [Compound 542, N-(5-methyl-1-oxo-2-propyl-1H-inden-3-yl)-2-oxo-6-(trifluoromethyl)-1,2-dihydropyridine-3-carboxamide]		4.67 µM	
CCCC1=C(NC(=O)c2ccc(C(F)(F)F)[nH]c2=O)c2cc(C)ccc2C1O (stereo not shown) [Compound 544, N-(1-hydroxy-5-methyl-2-propyl-1H-inden-3-yl)-2-oxo-6-(trifluoromethyl)-1,2-dihydropyridine-3-carboxamide]		1.15 µM	
Cc1ccc2c(c1)N(C(=O)OC(C)(C)C)CCC2NC(=O)c1ccc(C(F)(F)F)[nH]c1=O (stereo not shown) [Compound 546, tert-butyl 7-methyl-4-(2-oxo-6-(trifluoromethyl)-1,2-dihydropyridine-3-carboxamido)-3,4-dihydroquinoline-1(2H)-carboxylate]		> 10 µM	
C=Cc1cccc2c1CCCC2NC(=O)c1ccc(C(F)(F)F)[nH]c1=O (stereo not shown) [Compound 547, 2-oxo-6-(trifluoromethyl)-N-(5-vinyl-1,2,3,4-tetrahydronaphthalen-1-yl)-1,2-dihydropyridine-3-carboxamide]		6.24 µM	
O=C(NC1CCCc2c(/C=C/c3ccccc3)cccc21)c1ccc(C(F)(F)F)[nH]c1=O (stereo not shown) [Compound 548, (E)-2-oxo-N-(5-styryl-1,2,3,4-tetrahydronaphthalen-1-yl)-6-(trifluoromethyl)-1,2-dihydropyridine-3-carboxamide]		9.28 µM	

More lines, main results first:

Microsome Stability Human liver microsomes % Remaining @60 min [1]	IC50 (HSD17B13; [2])	SMILES	further results
	8.37 µM	N#Cc1cccc2c1CCCC2NC(=O)c1ccc(C(F)(F)F)[nH]c1=O (stereo not shown) [Compound 549, N-(5-cyano-1,2,3,4-tetrahydronaphthalen-1-yl)-2-oxo-6-(trifluoromethyl)-1,2-dihydropyridine-3-carboxamide]	
	1.6 µM	Cc1ccc(C(CC2CCCO2)NC(=O)c2ccc(C(F)(F)F)[nH]c2=O)cc1 (stereo not shown) [Compound 550, 2-oxo-N-(2-(tetrahydrofuran-2-yl)-1-(p-tolyl)ethyl)-6-(trifluoromethyl)-1,2-dihydropyridine-3-carboxamide]	
	2.69 µM	Cc1ccc(C(CC2CCOCC2)NC(=O)c2ccc(C(F)(F)F)[nH]c2=O)cc1 (stereo not shown) [Compound 551, 2-oxo-N-(2-(tetrahydro-2H-pyran-4-yl)-1-(p-tolyl)ethyl)-6-(trifluoromethyl)-1,2-dihydropyridine-3-carboxamide]	
	0.59 µM	CC[C@H](C[C@@H](NC(=O)c1ccc(C(F)(F)F)[nH]c1=O)c1ccc(C)cc1)OC [Compound 552, N-((1R,3R)-3-methoxy-1-(p-tolyl)pentyl)-2-oxo-6-(trifluoromethyl)-1,2-dihydropyridine-3-carboxamide]	
	2.08 µM	CC[C@@H](C[C@@H](NC(=O)c1ccc(C(F)(F)F)[nH]c1=O)c1ccc(C)cc1)OC [Compound 553, N-((1R,3S)-3-methoxy-1-(p-tolyl)pentyl)-2-oxo-6-(trifluoromethyl)-1,2-dihydropyridine-3-carboxamide]	
	2.35 µM	CC[C@@H](O)C[C@@H](NC(=O)c1ccc(C(F)(F)F)[nH]c1=O)c1ccc(C)cc1 [Compound 554, N-((1R,3R)-3-hydroxy-1-(p-tolyl)pentyl)-2-oxo-6-(trifluoromethyl)-1,2-dihydropyridine-3-carboxamide]	
	> 10 µM	CC[C@H](O)C[C@@H](NC(=O)c1ccc(C(F)(F)F)[nH]c1=O)c1ccc(C)cc1 [Compound 555, N-((1R,3S)-3-hydroxy-1-(p-tolyl)pentyl)-2-oxo-6-(trifluoromethyl)-1,2-dihydropyridine-3-carboxamide]	
	2.35 µM	Cc1ccc(C(CC2CCOC2)NC(=O)c2ccc(C(F)(F)F)[nH]c2=O)cc1 (stereo not shown) [Compound 556, 2-oxo-N-(2-(tetrahydrofuran-3-yl)-1-(p-tolyl)ethyl)-6-(trifluoromethyl)-1,2-dihydropyridine-3-carboxamide]	
	4.57 µM	Cc1ccc(C(NC(=O)c2ccc(C(F)(F)F)[nH]c2=O)C2CCOCC2)cc1 (stereo not shown) [Compound 558, 2-oxo-N-((tetrahydro-2H-pyran-4-yl)(p-tolyl)methyl)-6-(trifluoromethyl)-1,2-dihydropyridine-3-carboxamide]	
